# Experimental data: US20250144069A1, “BILOBALIDE DERIVATIVE COMPOUNDS FOR TREATING NEUROLOGICAL DISEASES AND CANCERS” (The Chinese University of Hong Kong, priority 2023, published 2025)
# Read-outs that look alike come from different tables or passages of the source.
# Experiments:
# Format in all cases: cell-based, human
# [1] = Single-dose CCK-8 cell viability screening (adherent cells); conditions: Homo sapiens, average of A549 and Jurkat % viability, 50 uM, 48 h
# Method: (§1) In this example, the anti-cancer properties of the BB analogues described in Table 1d were evaluated. Single-dose screening approach is used for initial testing to assess the cytotoxic effect of the BB analogues (also referred to as ‘BB compounds’) on Jurkat cells (human T cell leukaemia cells) and A549 cells (human lung cancer cells).
# (§2) Method for Adherent Cells (A549 Cells)
# (§3) In this example, 5000 cells/100 uL were seeded in 96-well plates and incubate at 37° C.+5% CO2 overnight. Media were replaced with 100 uL of 50 uM compound per well in 6 replicates. The following controls were prepared.
# (§4) Blank control: 100 uL 0.1% DMSO in media with no cells per well.
# (§5) Positive control: 100 uL of 10 uM 5-flurouracil per well.
# (§6) Negative control: 100 uL of 0.1% DMSO in media per well.
# (§7) Each 96-well plate included 7 compounds and the complete set of controls (in 6 replicates).
# (§8) Cells were incubated at 37° C.+5% CO2 for 46 hours. 10 uL of CCK8 solution was added to each well. Cells were then incubated at 37° C.+5% CO2 for 2 hours. Absorbance at 450 nm was measured using a multiplate reader.
# (§9) Viability was calculated using the equation: […]
# (§10) The benchmark in Table 2 was used to define the activities of each compound.
# A549 cells = assay: as above; conditions: Homo sapiens, A549, 48 h
# Method: as §1, §2, §3, §4, §5, §6, §7, §8, §9, §10
# Jurkat cells = assay: Single-dose CCK-8 cell viability screening (suspension cells); conditions: Homo sapiens, Jurkat, 48 h
# Method: as §1
# Method for Suspension Cells (Jurkat Cells)
# 5000 cells/90 uL were seeded in 96-well plates. 10 uL of 500 uM compound (10×) was added to each well in 6 replicates. The following controls were prepared.
# Blank control: 10 uL 1% DMSO in media with no cells per well.
# Positive control: 10 uL of 100 uM 5-flurouracil (10×) per well.
# Negative control: 10 uL of 1% DMSO in media (10×) per well.
# Each 96-well plate included 7 BB analogues and the complete set of controls (in 6 replicates).
# as §8, §9, §10
# [2] = read-out: % Viability (50 uM, 48 h) A549
# [3] = read-out: % Viability (50 uM, 48 h) Jurkat
# [4] = A549 cells, 50 uM, 48 h, CCK-8, read-out: % Viability (50 uM, 48 h) A549
# [5] = Jurkat cells, 50 uM, CCK-8, read-out: % Viability (50 uM, 48 h) Jurkat
SMILES,"viability at 50 µM ([1]; A549, 48 h)",viability at 50 µM (A549 cells; [2]),viability at 50 µM (Jurkat cells; [3]),viability at 50 µM (A549 cells; [4]),viability at 50 µM (Jurkat cells; [5]),viability at 50 µM [1],"viability at 50 µM (A549 cells; read-out: % Viability (50 uM, 48 h) A549, A549 cells, 50 uM, 48 h, CCK-8)","viability at 50 µM (Jurkat cells; read-out: % Viability (50 uM, 48 h) Jurkat, Jurkat cells, 50 uM, 48 h, CCK-8)"
"CC(C)(C)[C@]1(O)C[C@@H]2OC(=O)C[C@@]23C(=O)O[C@@H]2N(c4cccc(C(F)(F)F)c4)C(=O)[C@H](OC(=O)c4ccccc4)[C@]213 [JW100, (3aS,5aS,8R,9R,10aS)-9-(tert-butyl)-9-hydroxy-2,4,7-trioxo-6-(3-(trifluoromethyl)phenyl)octahydro-4H,9H-furo [3″,2″:2′,3′]cyclopenta [1′,2′:3,4]furo [2,3-b]pyrrol-8-yl benzoate]",61.1%,54%,68.2%,,,,,
"CC(C)(C)[C@]1(O)C[C@@H]2OC(=O)C[C@@]23C(=O)O[C@@H]2N(c4ccc(O)cc4)C(=O)[C@H](OC(=O)c4ccccc4)[C@]213 [JW103, (3aS,5aS,8R,9R,10aS)-9-(tert-butyl)-6-(4-hydroxyphenyl)-9-hydroxy-2,4,7-trioxodecahydrofuro [3″,2″:2′,3′]cyclopenta [1′,2′:3,4]furo [2,3-b]pyrrol-8-yl benzoate]",92.2%,,,102%,82.2%,,,
"CC(C)(C)[C@]1(O)C[C@@H]2OC(=O)C[C@@]23C(=O)O[C@@H]2N(c4ccc(C#N)cc4)C(=O)[C@H](OC(=O)c4ccccc4)[C@]213 [JW107, (3aS,5aS,8R,9R,10aS)-9-(tert-butyl)-6-(4-cyanophenyl)-9-hydroxy-2,4,7-trioxodecahydrofuro [3″,2″:2′,3′]cyclopenta [1′,2′:3,4]furo [2,3-b]pyrrol-8-yl benzoate]",72.7%,,,75.2%,70.2%,,,
"CC(C)(C)[C@]1(O)C[C@@H]2OC(=O)C[C@@]23C(=O)O[C@@H]2N(c4ccccc4)C(=O)[C@H](O)[C@]213 [JW116, (3aS,5aS,8R,8aS,9R,10aS)-9-(tert-butyl)-8,9-dihydroxy-6-phenyltetrahydro-4H,9H-furo[3″,2″:2′,3′]cyclopenta[1′,2′:3,4]furo[2,3-b]pyrrole-2,4,7(3H,8H)-trione]",91.2%,77.7%,105%,,,,,
"CC(C)(C)[C@]1(O)C[C@@H]2OC(=O)C[C@@]23C(=O)O[C@@H]2N(C[C@H]4CCCO4)C(=O)[C@H](OC(=O)c4ccccc4)[C@]213 [P-5, (3aS,5aS,8R,8aS,9R,10aS)-9-(tert-butyl)-9-hydroxy-2,4,7-trioxo-6-(((R)-tetrahydrofuran-2-yl)methyl) octahydro-4H,9H-furo [3″,2″:2′,3′]cyclopenta [1′,2′:3,4]furo[2,3-b]pyrrol-8-yl benzoate]",87.2%,,,98.7%,75.7%,,,
"CC(C)(C)[C@]1(O)C[C@@H]2OC(=O)C[C@@]23C(=O)O[C@@H]2N(c4cc(F)cc(F)c4)C(=O)[C@H](OC(=O)c4ccccc4)[C@]213 [P-19, (3aS,5aS,8R,8aS,9R,10aS)-9-(tert-butyl)-9-hydroxy-2,4,7-trioxo-6-(3,5-difluoro-phenyl)octahydro-4H,9H-furo [3″,2″:2′,3′]cyclopenta [1′,2′:3,4]furo [2,3-b]pyrrol-8-yl benzoate]",60.2%,,,50.2%,70.2%,,,
"CC(C)(C)[C@]1(O)C[C@@H]2OC(=O)C[C@@]23C(=O)O[C@@H]2N(c4ccc(F)cc4)C(=O)[C@H](OC(=O)c4ccccc4)[C@]213 [P-28, (3aS,5aS,8R,9R,10aS)-9-(tert-butyl)-9-hydroxy-2,4,7-trioxo-6-(4-fluorophenyl)octahydro-4H,9H-furo [3″,2″:2′,3′]cyclopenta [1′,2′:3,4]furo [2,3-b]pyrrol-8-yl benzoate]",72.7%,76.2%,69.2%,,,,,
"Cc1ccc(N2C(=O)[C@H](OC(=O)c3ccccc3)[C@@]34[C@@H]2OC(=O)[C@@]32CC(=O)O[C@H]2C[C@@]4(O)C(C)(C)C)cc1 [P-30, (3aS,5aS,8R,9R,10aS)-9-(tert-butyl)-9-hydroxy-2,4,7-trioxo-6-(toluyl)octahydro-4H,9H-furo [3″,2″:2′,3′]cyclopenta [1′,2′:3,4]furo [2,3-b]pyrrol-8-yl benzoate]",59.1%,,,56.9%,61.3%,,,
"Cc1cccc(N2C(=O)[C@H](OC(=O)c3ccccc3)[C@@]34[C@@H]2OC(=O)[C@@]32CC(=O)O[C@H]2C[C@@]4(O)C(C)(C)C)c1 [P-33, (3aS,5aS,8R,9R,10aS)-9-(tert-butyl)-9-hydroxy-2,4,7-trioxo-6-(3-methylphenyl)octahydro-4H,9H-furo [3″,2″:2′,3′]cyclopenta [1′,2′:3,4]furo [2,3-b]pyrrol-8-yl benzoate]",63.5%,,,61.1%,66%,,,
"Cc1ccccc1N1C(=O)[C@H](OC(=O)c2ccccc2)[C@@]23[C@@H]1OC(=O)[C@@]21CC(=O)O[C@H]1C[C@@]3(O)C(C)(C)C [P-34, (3aS,5aS,8R,9R,10aS)-9-(tert-butyl)-9-hydroxy-2,4,7-trioxo-6-(2-methylphenyl)octahydro-4H,9H-furo [3″,2″:2′,3′]cyclopenta [1′,2′:3,4]furo [2,3-b]pyrrol-8-yl benzoate]",77%,,,80.2%,73.8%,,,
"CC(C)(C)[C@]1(O)C[C@@H]2OC(=O)C[C@@]23C(=O)O[C@@H]2NC(=O)[C@H](OC(=O)c4ccccc4)[C@]213 [XBB-004, (3aS,5aS,8R,8aS,9R,10aS)-9-(tert-butyl)-9-hydroxy-2,4,7-trioxooctahydro-4H,9H-furo[3″,2″:2′,3′]cyclopenta[1′,2′:3,4]furo[2,3-b]pyrrol-8-yl benzoate]",,98.5%,95%,,,96.7%,,
C=C(C)[C@@]1(C)C[C@@H]2OC(=O)C[C@@]23C(=O)O[C@@H]2OC(=O)[C@H](OC(C)=O)[C@]213 [XBB-009],,103%,107%,,,105%,,
"CC(=O)O[C@H]1C(=O)N[C@H]2OC(=O)[C@]34CC(=O)O[C@H]3C=C(C(C)(C)C)[C@@]214 [XBB-010, (3aS,5aS,8R,8aS,10aS)-9-(tert-butyl)-2,4,7-trioxo-2,3,5a,6,7,8-hexahydro-4H,10aH-furo[3″,2″:2′,3′]cyclopenta[1′,2′:3,4]furo[2,3-b]pyrrol-8-yl acetate]",114%,,,,,,112%,115%
C=C(C)[C@@]1(C)C[C@@H]2OC(=O)C[C@@]23C(=O)O[C@@H]2NC(=O)[C@H](O)[C@]213 [XBB-013],,100%,107%,,,104%,,
CC(C)(C)[C@]1(O)C[C@@H]2OC(=O)C[C@@]23C(=O)O[C@@H]2N(Cc4ccccc4)C(=O)[C@H](OC(=O)c4ccccc4)[C@]213 [XBB-016],106%,,,105%,107%,,,
"COc1ccc(CN2C(=O)[C@H](OC(=O)c3ccccc3)[C@@]34[C@@H]2OC(=O)[C@@]32CC(=O)O[C@H]2C[C@@]4(O)C(C)(C)C)c(OC)c1 [XBB-018, (3aS,5aS,8R,8aS,9R,10aS)-6-(2,4-dimethoxy-benzyl-9-(tert-butyl)-9-hydroxy-2,4,7-trioxooctahydro-4H,9H-furo [3″,2″:2′,3′]cyclopenta [1′,2′:3,4]furo [2,3-b]pyrrol-8-yl benzoate]",94.5%,,,86.5%,102%,,,
"CC(C)(C)OC(=O)N1CCC(CCN2C(=O)[C@H](OC(=O)c3ccccc3)[C@@]34[C@@H]2OC(=O)[C@@]32CC(=O)O[C@H]2C[C@@]4(O)C(C)(C)C)CC1 [XBB-023, tert-butyl 4-(2-((3aS,5aS,8R,8aS,9R,10aS)-8-(benzoyloxy)-9-(tert-butyl)-9-hydroxy-2,4,7-trioxohexahydro-4H,9H-furo[3″,2″:2′,3′]cyclopenta[1′,2′:3,4]furo[2,3-b]pyrrol-6(5aH)-yl)ethyl)piperidine-1-carboxylate]",71.7%,,,72.1%,71.3%,,,
CC(C)(C)OC(=O)N1CCC(CCCN2C(=O)[C@H](OC(=O)c3ccccc3)[C@@]34[C@@H]2OC(=O)[C@@]32CC(=O)O[C@H]2C[C@@]4(O)C(C)(C)C)CC1 [XBB-025],91.7%,,,100%,83.3%,,,
